ChEMBL document CHEMBL1914418, “Biochemical and pharmacological profiling of the pro-survival protein Bcl-xL” (Bioorg Med Chem Lett, 2011)

Experiments:
Bcl-2-like protein 1 [1] = target: Bcl-2-like protein 1 (Homo sapiens, UniProt Q07817, L130G); test: Displacement of BODIPY-Bak conjugated peptide from GST-tagged human Bcl-2-like protein 1 L130G mutant expressed in Escherichia coli BL21 cells at 10 uM after 3 hrs by fluorescence polarization competition assay
Bcl-2-like protein 1 [2] = target: Bcl-2-like protein 1 (Homo sapiens, UniProt Q07817); test: Displacement of BODIPY-Bak conjugated peptide from GST-tagged human Wild type Bcl-2-like protein 1 expressed in Escherichia coli BL21 cells at 10 uM after 3 hrs by fluorescence polarization competition assay
Sequence of Bcl-2-like protein 1 (Homo sapiens, UniProt Q07817) (Q07817 whole entry): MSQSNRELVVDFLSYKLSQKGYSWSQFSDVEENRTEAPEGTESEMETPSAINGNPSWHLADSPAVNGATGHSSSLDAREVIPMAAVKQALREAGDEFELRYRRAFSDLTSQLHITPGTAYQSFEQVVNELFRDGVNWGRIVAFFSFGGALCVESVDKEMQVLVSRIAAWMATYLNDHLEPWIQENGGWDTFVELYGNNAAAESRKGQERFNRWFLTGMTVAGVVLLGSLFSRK

Bcl-2-like protein 1 [3] = target: Bcl-2-like protein 1 (Homo sapiens, UniProt Q07817, L130V); test: Displacement of BODIPY-Bak conjugated peptide from GST-tagged human Bcl-2-like protein 1 L130V mutant expressed in Escherichia coli BL21 cells at 10 uM after 3 hrs by fluorescence polarization competition assay
Sequence of Bcl-2-like protein 1 (Homo sapiens, UniProt Q07817, L130V) (Q07817 whole entry L130V): as the sequence (Q07817 whole entry) above, with L130V counted along it

Bcl-2-like protein 2 = target: T1, Bcl-2-like protein 2 (Homo sapiens, UniProt Q92843); test: Displacement of BODIPY-Bak conjugated peptide from GST-tagged human wild type Bcl-W expressed in Escherichia coli BL21 cells at 10 uM after 3 hrs by fluorescence polarization competition assay
T1 sequence (Q92843 whole entry): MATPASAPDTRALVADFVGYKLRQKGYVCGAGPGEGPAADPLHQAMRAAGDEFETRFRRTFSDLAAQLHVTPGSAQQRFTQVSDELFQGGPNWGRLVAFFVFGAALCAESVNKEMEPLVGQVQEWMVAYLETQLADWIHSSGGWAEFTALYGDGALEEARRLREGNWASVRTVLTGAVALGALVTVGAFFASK

[4] = target: Induced myeloid leukemia cell differentiation protein Mcl-1 homolog (Mus musculus, UniProt P97287); test: Displacement of BODIPY-Bak conjugated peptide from GST-tagged mouse wild type MCL1 expressed in Escherichia coli BL21 cells at 10 uM after 3 hrs by fluorescence polarization competition assay
Sequence of Induced myeloid leukemia cell differentiation protein Mcl-1 homolog (P97287 whole entry): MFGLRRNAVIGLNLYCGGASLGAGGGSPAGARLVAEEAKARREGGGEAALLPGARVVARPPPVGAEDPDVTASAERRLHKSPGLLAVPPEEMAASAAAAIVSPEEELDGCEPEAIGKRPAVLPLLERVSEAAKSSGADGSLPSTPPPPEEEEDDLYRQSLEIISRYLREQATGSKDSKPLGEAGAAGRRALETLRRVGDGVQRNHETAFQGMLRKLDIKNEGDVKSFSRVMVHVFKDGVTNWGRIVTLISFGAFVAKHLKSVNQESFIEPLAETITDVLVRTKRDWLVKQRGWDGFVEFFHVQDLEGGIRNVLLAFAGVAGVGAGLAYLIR

Sequence of Bcl-2-like protein 1 (Homo sapiens, UniProt Q07817, L130G) (Q07817 whole entry L130G): as the sequence (Q07817 whole entry) above, with L130G counted along it

Compound	Ki (Bcl-2-like protein 1 [1])	Ki (Bcl-2-like protein 1 [2])	Ki (Bcl-2-like protein 1 [3])	Ki (Bcl-2-like protein 2)	Ki [4]
C[C@H]1CN(c2ccc(C(=O)NS(=O)(=O)c3ccc(N[C@H](CCN(C)C)CSc4ccccc4)c([N+](=O)[O-])c3)cc2)CCN1Cc1ccccc1C(F)(F)F	99 nM	< 1 nM	< 1 nM	63 nM	2000 nM
C[C@@H]1CN(c2ccc(C(=O)NS(=O)(=O)c3ccc(N[C@H](CCN(C)C)CSc4ccccc4)c([N+](=O)[O-])c3)cc2)CCN1Cc1ccccc1C(F)(F)F	81 nM	1 nM	3.7 nM	55 nM	1500 nM
CC1CN(c2ccc(C(=O)NS(=O)(=O)c3ccc(N[C@H](CCN(C)C)CSc4ccccc4)c([N+](=O)[O-])c3)cc2)CC(C)N1Cc1ccccc1C(F)(F)F (stereo not given in full)	140 nM	68 nM	96 nM	170 nM	> 10000 nM
CC(C)[C@H]1CN(Cc2ccccc2C(F)(F)F)CCN1c1ccc(C(=O)NS(=O)(=O)c2ccc(N[C@H](CCN(C)C)CSc3ccccc3)c([N+](=O)[O-])c2)cc1	83 nM	3.3 nM	63 nM	59 nM	2000 nM
CC(C)[C@@H]1CN(Cc2ccccc2C(F)(F)F)CCN1c1ccc(C(=O)NS(=O)(=O)c2ccc(N[C@H](CCN(C)C)CSc3ccccc3)c([N+](=O)[O-])c2)cc1	280 nM	2.6 nM	42 nM	21 nM	2000 nM
